Results published in PubChem BioAssay (NCI).
“And” between values parts separate entries of the source, which are not always exact repeats. Equal entries are not always repeated.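 Results reflect a 48-hour exposure of cells in 96-well plates to compound at five concentrations. GI50 = concentration required for 50% inhibition of growth. TGI: concentration producing complete growth inhibition.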

Key:
Assay in all cases: NCI tumour cell line growth inhibition, 48 h
HT29 colon = test system: HT29 colon
MCF7 breast = test system: MCF7 breast
RXF 393 renal = test system: RXF 393 renal
M14 melanoma = test system: M14 melanoma
PC-3 prostate = test system: PC-3 prostate
OVCAR-5 ovarian = test system: OVCAR-5 ovarian
BT-549 breast = test system: BT-549 breast
SK-MEL-5 melanoma = test system: SK-MEL-5 melanoma
SK-MEL-2 melanoma = test system: SK-MEL-2 melanoma
DU-145 prostate = test system: DU-145 prostate
SK-MEL-28 melanoma = test system: SK-MEL-28 melanoma

SMILES	TGI (HT29 colon) [µM]	TGI (MCF7 breast) [µM]	TGI (RXF 393 renal) [µM]	TGI (M14 melanoma) [µM]	TGI (PC-3 prostate) [µM]	TGI (OVCAR-5 ovarian) [µM]	TGI (BT-549 breast) [µM]	TGI (SK-MEL-5 melanoma) [µM]	TGI (SK-MEL-2 melanoma) [µM]	TGI (DU-145 prostate) [µM]	TGI (SK-MEL-28 melanoma) [µM]	GI50 (PC-3 prostate)	GI50 (BT-549 breast)	GI50 (SK-MEL-2 melanoma)
CC1=C(C(=O)NC(C)(C)C)CC(C(=O)NC(C)(C)C)C(C)N1 (stereo unspecified)	> 100	> 100	> 100	> 100	> 100	> 100	> 100	> 100	> 100	> 100				
O=C(Nc1ccc(S(=O)(=O)Nc2ncccn2)cc1)c1c2ccccc2nc2ccccc12	> 100	> 100		> 100	> 100	> 100	> 100	> 100	> 100	> 100	> 100			
Cc1ccccc1NC(=O)CSc1nnc(Cc2ccccc2)o1	> 100		> 100	> 100		> 100		> 100	> 100		> 100			
CC(=O)NC1C(OCc2ccccc2)OC(CO)C(O)C1OCC(=O)N1CCCC1C(=O)NC(CCC(=O)NCCCCCNc1c2ccccc2nc2cccc([N+](=O)[O-])c12)C(N)=O (stereo unspecified)	12.5	0.502	0.0253	0.0591	0.0293	0.06		0.0386	0.0456	0.107	0.11			
CCSC12CC3c4cccc5c4C(CN5C(=O)c4ccccc4)CC3(O1)N(C)C2=O (stereo unspecified)	> 100		> 100	> 100	81.2	> 100	80.7	28.9	89.5	> 100	> 100			
Oc1ccccc1-n1nc2ccc3nonc3c2n1	> 100	> 100		> 100	> 100	> 100	> 100	> 100	> 100	> 100	> 100			
CC(Nc1n[nH]c(=O)c2c1nnn2Cc1ccccc1)c1ccccc1 (stereo unspecified)	24.7	> 100		> 100	> 100	> 100	> 100	> 100	> 100	> 100	> 100	> 100 µM and 20.8 µM	> 100 µM and 37.5 µM	> 100 µM and 41.5 µM
CC(=O)C1=NN(c2ccccc2)C2(S1)SC(c1ccccc1)(c1ccccc1)c1ccccc12 (stereo unspecified)	> 100		65.7	> 100					78.7		> 100			
c1cc(C[S+]2CCCC2)oc1C[S+]1CCCC1	> 100		> 100	> 100	> 100		> 100	> 100		> 100	> 100			
CC[C@H](C)[C@H]1NC(=O)[C@@H](NC(=O)[C@@H](CC(C)C)N(C)C(=O)C2CCCN2C(=O)[C@H](C)O)[C@@H](C)OC(=O)[C@H](Cc2ccccc2)N(C)C(=O)[C@@H]2CCCN2C(=O)[C@H](CC(C)C)NC(=O)[C@@H](C)C(=O)[C@H](C(C)C)OC(=O)C[C@@H]1O (stereo partly specified)	0.0205	0.0641	0.0179	0.0257	0.119	0.075	< 0.00625		0.0954		0.00828			
COc1nc(OC)nc(Sc2ccc(Sc3ccc(Sc4nc(OC)nc(OC)n4)cc3)cc2)n1	> 100		> 100	> 100		> 100		> 100	> 100		> 100			
O=C1c2ccccc2C(=O)c2c(O)c(NCCNCCO)cc(O)c21	11.5		13.4	16		21.8		13.1	15.8		16.6			
Cc1cc(Cl)ccc1NC(=O)C(=O)Cc1occc(=O)c1O	> 100		> 100	> 100		> 100		> 100	> 100		> 100			
COC(=O)CNCC1OC2OC(C)(C)OC2C1N=[N+]=[N-] (stereo unspecified)	> 100	> 100	> 100		> 100	> 100	> 100	> 100	> 100	> 100	> 100			
NCCCCCNOCCCN	> 100			> 100	> 100	> 100	> 100	> 100	> 100	> 100	> 100			
COc1nc(C)nc2c1ncn2Cc1ccccc1	> 100	> 100	> 100	> 100	> 100	> 100		> 100		> 100	> 100			
CC1(C)N=C(Oc2ccccc2)n2nccc2N1	> 100		> 100	> 100		> 100		> 100	> 100		> 100			
C=CCC1C2CCC(O[Si](C(C)C)(C(C)C)C(C)C)(C(C(=O)OC)C2)C1O (stereo unspecified)	> 100	> 100		> 100	> 100	> 100		> 100	> 100	> 100	> 100			
COc1cc2c(cc1OCCCCN1CCN(CCCCOc3cc4c(cc3OC)C(=O)N3CCC[C@H]3C=N4)CC1)N=C[C@@H]1CCCN1C2=O	0.656	45	0.507	0.0936	3.12	0.163	0.843	0.0476	0.175	> 100				
Cc1nc2nn(C)cc2c(=O)n1/N=C/c1ccccc1	> 100		> 100			> 100		> 100	> 100		> 100			
CCCOP(=S)(N1CC1)N1CC1	> 100		> 100	> 100		> 100		> 100	> 100		> 100			
Cc1ccc([N+](=O)[O-])c2c(NCCC[N+](C)(C)[O-])ccnc12	> 100	38.1	> 100	> 100	> 100	84.3		24.6	> 100	> 100	> 100			
Cc1cc(C)nc(NS(=O)(=O)c2ccc(NC(=O)c3cccc4c(N)c5ccccc5nc34)cc2)n1			> 100	> 100		> 100		> 100	> 100		> 100			
